Assay: xn = mol fraction of the nth substance listed
Details: Liquid

CCO [ethanol] + O
Details | mass density [kg/m3]
323.15 K, 40000 kPa, x1 = 0.0801 | 971.4
323.15 K, 40000 kPa, x1 = 0.084 | 970.9
323.15 K, 40000 kPa, x1 = 0.0879 | 969.2
323.15 K, 40000 kPa, x1 = 0.0926 | 967.6
323.15 K, 40000 kPa, x1 = 0.0958 | 966.5
323.15 K, 40000 kPa, x1 = 0.1006 | 964.9
323.15 K, 40000 kPa, x1 = 0.1111 | 961.3
323.15 K, 40000 kPa, x1 = 0.1225 | 957.4
323.15 K, 40000 kPa, x1 = 0.1296 | 955.2
323.15 K, 40000 kPa, x1 = 0.1402 | 951.7
323.15 K, 40000 kPa, x1 = 0.151 | 948.2
323.15 K, 40000 kPa, x1 = 0.1601 | 945.3
323.15 K, 40000 kPa, x1 = 0.1703 | 942
323.15 K, 40000 kPa, x1 = 0.18 | 938.9
323.15 K, 40000 kPa, x1 = 0.1903 | 935.8
323.15 K, 40000 kPa, x1 = 0.1996 | 932.9
323.15 K, 40000 kPa, x1 = 0.2269 | 924.7
323.15 K, 40000 kPa, x1 = 0.2502 | 918.2
323.15 K, 40000 kPa, x1 = 0.2745 | 911.5
323.15 K, 40000 kPa, x1 = 0.3009 | 904.8
323.15 K, 40000 kPa, x1 = 0.35 | 892.7
323.15 K, 40000 kPa, x1 = 0.4034 | 881
323.15 K, 40000 kPa, x1 = 0.4501 | 871.3
323.15 K, 40000 kPa, x1 = 0.498 | 862.6
323.15 K, 40000 kPa, x1 = 0.5501 | 853.6
323.15 K, 40000 kPa, x1 = 0.5998 | 845.8
323.15 K, 40000 kPa, x1 = 0.6489 | 838.5
323.15 K, 40000 kPa, x1 = 0.6967 | 831.9
323.15 K, 40000 kPa, x1 = 0.7475 | 825.5
323.15 K, 40000 kPa, x1 = 0.7996 | 819.1
323.15 K, 40000 kPa, x1 = 0.8484 | 813.6
323.15 K, 40000 kPa, x1 = 0.8993 | 808
323.15 K, 40000 kPa, x1 = 0.9503 | 802.8
323.15 K, 40000 kPa, x1 = 1 | 797.7
348.15 K, 100 kPa, x1 = 0.003 | 973.1
348.15 K, 100 kPa, x1 = 0.0042 | 971.9
348.15 K, 100 kPa, x1 = 0.0082 | 970.7
348.15 K, 100 kPa, x1 = 0.0119 | 969.1
348.15 K, 100 kPa, x1 = 0.0158 | 966.6
348.15 K, 100 kPa, x1 = 0.0184 | 965.4
348.15 K, 100 kPa, x1 = 0.0219 | 963.9
348.15 K, 100 kPa, x1 = 0.0255 | 962
348.15 K, 100 kPa, x1 = 0.0279 | 960.4
348.15 K, 100 kPa, x1 = 0.0315 | 959.4
348.15 K, 100 kPa, x1 = 0.0366 | 956.7
348.15 K, 100 kPa, x1 = 0.0392 | 955.3
348.15 K, 100 kPa, x1 = 0.0439 | 953.5
348.15 K, 100 kPa, x1 = 0.0483 | 951.2
348.15 K, 100 kPa, x1 = 0.0516 | 950.2
348.15 K, 100 kPa, x1 = 0.0559 | 948.8
348.15 K, 100 kPa, x1 = 0.06 | 946.9
348.15 K, 100 kPa, x1 = 0.0652 | 944.8
348.15 K, 100 kPa, x1 = 0.0679 | 943.7
348.15 K, 100 kPa, x1 = 0.0722 | 941.5
348.15 K, 100 kPa, x1 = 0.0801 | 938.1
348.15 K, 100 kPa, x1 = 0.084 | 937.5
348.15 K, 100 kPa, x1 = 0.0879 | 935.3
348.15 K, 100 kPa, x1 = 0.0926 | 933.6
348.15 K, 100 kPa, x1 = 0.0958 | 932.2
348.15 K, 100 kPa, x1 = 0.1006 | 930.2
348.15 K, 100 kPa, x1 = 0.1111 | 925.9
348.15 K, 100 kPa, x1 = 0.1225 | 921.5
348.15 K, 100 kPa, x1 = 0.1296 | 918.7
348.15 K, 100 kPa, x1 = 0.1402 | 914.6
348.15 K, 100 kPa, x1 = 0.151 | 910.4
348.15 K, 100 kPa, x1 = 0.1601 | 906.9
348.15 K, 100 kPa, x1 = 0.1703 | 903.1
348.15 K, 100 kPa, x1 = 0.18 | 899.5
348.15 K, 100 kPa, x1 = 0.1903 | 895.8
348.15 K, 100 kPa, x1 = 0.1996 | 892.6
348.15 K, 100 kPa, x1 = 0.2269 | 883.1
348.15 K, 100 kPa, x1 = 0.2502 | 875.6
348.15 K, 100 kPa, x1 = 0.2745 | 868
348.15 K, 100 kPa, x1 = 0.3009 | 860.4
348.15 K, 100 kPa, x1 = 0.35 | 846.7
348.15 K, 100 kPa, x1 = 0.4034 | 833.4
348.15 K, 100 kPa, x1 = 0.4501 | 822.7
348.15 K, 100 kPa, x1 = 0.498 | 812.7
348.15 K, 100 kPa, x1 = 0.5501 | 802.6
348.15 K, 100 kPa, x1 = 0.5998 | 793.8
348.15 K, 100 kPa, x1 = 0.6489 | 785.6
348.15 K, 100 kPa, x1 = 0.6967 | 778.2
348.15 K, 100 kPa, x1 = 0.7475 | 770.9
348.15 K, 100 kPa, x1 = 0.7996 | 763.9
348.15 K, 100 kPa, x1 = 0.8484 | 757.6
348.15 K, 100 kPa, x1 = 0.8993 | 751.5
348.15 K, 100 kPa, x1 = 0.9503 | 745.7
348.15 K, 100 kPa, x1 = 1 | 739.4
348.15 K, 10000 kPa, x1 = 0.003 | 977.5
348.15 K, 10000 kPa, x1 = 0.0042 | 976.3
348.15 K, 10000 kPa, x1 = 0.0082 | 975
348.15 K, 10000 kPa, x1 = 0.0119 | 973.4
348.15 K, 10000 kPa, x1 = 0.0158 | 971
348.15 K, 10000 kPa, x1 = 0.0184 | 969.6
348.15 K, 10000 kPa, x1 = 0.0219 | 968.2
348.15 K, 10000 kPa, x1 = 0.0255 | 966.4
348.15 K, 10000 kPa, x1 = 0.0279 | 964.8
348.15 K, 10000 kPa, x1 = 0.0315 | 963.8
348.15 K, 10000 kPa, x1 = 0.0366 | 961
348.15 K, 10000 kPa, x1 = 0.0392 | 959.6
348.15 K, 10000 kPa, x1 = 0.0439 | 957.8
